Assay results as given in patent US6071945A, “8H-thieno-[2,3-b]pyrrolizin-8-one compounds” (Adir et Compagnie, priority 1998, dated 2000).

Experiments:
[1] = tested on: P388 murine leukaemia cells; assay: In vitro cytotoxicity (Microculture Tetrazolium Assay), P388; assay type: cell-based; details: Mus musculus, 48 h; P388, 2 days incubation; read-out: IC50, concentration that inhibits the proliferation of the treated cells by 50%
Protocol: (§1) Six cell lines were used:
(§2) The cells are cultured in RPMI 1640 complete culture medium containing 10% fetal calf serum, 2 mM glutamine, 50 units/ml of penicillin, 50 μg/ml of streptomycin and 10 mM Hepes, pH=7.4. The cells are distributed on microtitre plates and exposed to the cytotoxic compounds. The cells are then incubated for 2 days (P388, L1210) or 4 days (A549, KB-A1, KB-3-1, IGROV1). The number of viable cells is then quantified by means of a calorimetric assay, the Microculture Tetrazolium Assay (Cancer Res. 1987, 47, 939-942).
(§3) The results are expressed as IC50, the concentration of cytotoxic agent that inhibits the proliferation of the treated cells by 50%.

[2] = tested on: L1210 murine leukaemia cells; assay: In vitro cytotoxicity (Microculture Tetrazolium Assay), L1210; assay type: cell-based; details: Mus musculus, 48 h; L1210, 2 days incubation; read-out: IC50, concentration that inhibits the proliferation of the treated cells by 50%
Protocol: as §1, §2, §3

[3] = tested on: A549 human non-small-cell lung carcinoma cells; assay: In vitro cytotoxicity (Microculture Tetrazolium Assay), A549; assay type: cell-based; details: 96 h, A549, 4 days incubation, read-out: IC50, concentration that inhibits the proliferation of the treated cells by 50%
Protocol: as §1
1 human non-small-cell lung carcinoma, A549,
as §2, §3

[4] = tested on: KB-3-1 human epidermoid carcinoma cells; assay: In vitro cytotoxicity (Microculture Tetrazolium Assay), KB-3-1; assay type: cell-based; details: 96 h, KB-3-1, 4 days incubation, read-out: IC50, concentration that inhibits the proliferation of the treated cells by 50%
Protocol: as §1
(§4) 1 human epidermoid carcinoma, KB-3-1 , and the corresponding resistant line, KB-A 1, the multi-drug, resistance of which was produced using adriamycin (ADR),
as §2, §3

[5] = tested on: KB-A1 multi-drug resistant (adriamycin) human epidermoid carcinoma cells; assay: In vitro cytotoxicity (Microculture Tetrazolium Assay), KB-A1; assay type: cell-based; details: 96 h, KB-A1, 4 days incubation, read-out: IC50, concentration that inhibits the proliferation of the treated cells by 50%
Protocol: as §1, §4, §2, §3

[6] = tested on: IGROV1 human ovarian carcinoma cells; assay: In vitro cytotoxicity (Microculture Tetrazolium Assay), IGROV1; assay type: cell-based; details: IGROV-1, 96 h, IGROV1, 4 days incubation, read-out: IC50, concentration that inhibits the proliferation of the treated cells by 50%
Protocol: as §1
1 human ovarian carcinoma, IGROV1.
as §2, §3

L1210 cells = assay: Action on the cell cycle; assay type: cell-based, murine; details: 500 nM, 21 hours, 37° C.; control: 20%
Protocol: L1210 cells are incubated for 21 hours at 37° C. in the presence of different concentrations of the products being tested. The cells are then fixed using 70% (v/v) ethanol, washed twice in PBS and incubated for 30 minutes at 20° C. in PBS containing 100 μg/ml of RNase and 50 μg/ml of propidium iodide. The results are expressed as the percentage of cells that have accumulated in the G2+M phase after 21 hours, compared to the control (control: 20%). At a concentration of 500 nM, the compound of Example 8 causes 80-90% of the cells to accumulate in the G2+M phase after 21 hours.

P388 leukaemia = assay: In vivo anti-tumour activity on the P388 leukaemia; set-up: species or system female BDF1 mice; details: intraperitoneal, once per day for 4 days (D1-4)
Protocol: Line P388 (murine leukaemia) was supplied by the National Cancer Institute (Frederick, U.S.A.). The tumour cells (10^6 cells) were inoculated on day 0 into the peritoneal cavity of female BDF1 mice (Iffa-Credo, France) weighing from 18 to 20 g (groups of 6 animals). The products were administered by the intraperitoneal route once per day for 4 days (D1-4) at the doses indicated.
(§5) The anti-tumour activity is expressed as % T/C: [formula]

IGROV1 ovarian carcinoma = assay: In vivo anti-tumour activity on the IGROV1 ovarian carcinoma; set-up: species or system nude BABL/C mice; details: 200 mg/kg, intraperitoneal, once per week on days 4, 11 and 18
Protocol: as §5
IGROV1 tumour cells (10^7 cells) were incubated on day 0 in the peritoneal cavity of nude BABL/C mice (groups of 5 animals). The products were administered by the intraperitoneal route once per week on days 4, 11 and 18. The anti-tumour activity is expressed as % T/C as defined hereinbefore. The compound of Example 8 is active at the 200 mg/kg dose and increases the survival of the treated animals by 60% (T/C=160%).

[7] = tested on: cells originating from human solid tumours; assay: In vitro cytotoxicity, human solid tumour cells compared with murine leukaemias; assay type: cell-based; details: versus P388 and L1210
Protocol: as §1, §2, §3

O=C1c2scc(-c3ccc(O)c(O)c3)c2-n2cccc21 [Example 8, 3-(3,4-Dihydroxyphenyl)-8H-thieno[2,3-b]pyrrolizin-8-one]
IC50 [1]: 356 nM | IC50 [2]: 222 nM | IC50 [3]: 122 nM | IC50 [4]: 33 nM | IC50 [5]: 22 nM | IC50 [6]: 56 nM | percentage of cells that have accumulated in the G2+M phase (L1210 cells): 80-90% | minimal effective dose (P388 leukaemia; Mus musculus, P388, ip, read-out: dose from which the compound is active): ≥ 25 mg/kg | increase in survival of the treated animals (P388 leukaemia; active from the 25 mg/kg dose): 70% | T/C (IGROV1 ovarian carcinoma): 160% | increase in survival of the treated animals (IGROV1 ovarian carcinoma): 60% | effect on cells originating from human solid tumours compared with the two murine leukaemias [7]: more potent effect on the cells originating from human solid tumours than on the two murine leukaemias
